Results from patent US9657018B2, “Antagonists acting at multiple prostaglandin receptors for the treatment of inflammation” (Allergan, Inc., priority 2014, dated 2017).
Where a name gives a salt, the structure may show the parent alone.

Key:
[1] = molecular target: T1, human prostanoid TP receptor (Homo sapiens, UniProt P21731); assay: FLIPR Ca2+ signaling antagonist assay, TP receptor stable cell line; type: cell-based; design: key to FLIPR data TP (Kb): PAg = partial agonist; Ag = agonist; NA = not active; conditions: human recombinant TP in HEK-293 EBNA cells; standard agonist U-46619; NA = no antagonism or Kb>=10,000 nM
T1 construct: expressed in transfected cells
T1 sequence (P21731 1-343): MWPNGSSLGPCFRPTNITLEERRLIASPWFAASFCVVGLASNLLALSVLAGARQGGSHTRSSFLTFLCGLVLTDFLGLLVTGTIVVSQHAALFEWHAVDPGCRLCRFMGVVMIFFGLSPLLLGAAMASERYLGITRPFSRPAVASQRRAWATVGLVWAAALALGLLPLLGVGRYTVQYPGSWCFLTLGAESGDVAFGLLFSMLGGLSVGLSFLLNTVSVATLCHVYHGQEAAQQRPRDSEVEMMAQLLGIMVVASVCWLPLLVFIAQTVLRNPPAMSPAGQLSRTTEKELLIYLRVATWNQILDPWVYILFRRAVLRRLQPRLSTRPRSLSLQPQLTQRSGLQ
Protocol: (§1) The above compounds were tested for PG antagonist activity as follows using human recombinant prostanoid receptor (DP1, EP1-4, FP, IP and TP) stable cell lines:
(§2) In order to measure the response of Gs and Gi coupled prostanoid receptors as a Ca^2+ signal, chimeric G protein cDNAs were used. Stable cell lines over-expressing human prostanoid DP1, EP1-4, FP, IP, and TP receptors were established as follows:
(§3) Briefly, human prostanoid DP1, EP2, and EP4 receptor cDNAs were co-transfected with chimeric Gqs cDNA containing a haemagglutanin (HA) epitope; human prostanoid EP3 receptors were co-transfected with chimeric Gqi-HA; human EP1, FP, IP, and TP receptor cDNAs were expressed with no exogenous G-proteins. Gqs and Gqi chimeric cDNAs (Molecular Devices, Sunnyvale, Calif., U.S.A.), as well as cDNAs of prostanoid receptors, were cloned into a pCEP4 vector with a hygromycin B selection marker. Transfection into HEK-293 EBNA (Epstein-Barr virus nuclear antigen) cells was achieved by the FuGENE 6 transfection Reagent (Roche Applied Science, Indianapolis, Ind., USA). Stable transfectants were selected according to hygromycin resistance. Because Gqs and Gqi contained an HA epitope, G-protein expression was detected by Western blotting analysis using anti-mouse HA monoclonal antibody and horseradish peroxidase (HRP)-conjugated secondary antibody, while functional expression of prostanoid receptors was detected by FLIPR screening (Matias et al., 2004). These stable cell lines were validated using previously published antagonists at 10 μM against serial dilutions of standard agonists by FLIPR functional assays for Ca^2+ Signaling (as described below).
(§4) Ca^2+ signaling studies were performed using a FLIPR TETRA system (Molecular Devices, Sunnyvale, Calif., USA) in the 384-format. This is a high-throughput instrument for cell-based assays to monitor Ca^2+ signaling associated with GPCRs and ion channels. Cells were seeded at a density of 5×10^4 cells/well in BioCoat poly-D-lysine coated, black wall, clear bottom 384-well plates (BD Biosciences, Franklin lakes, NJ, USA) and allowed to attach overnight in an incubator at 37° C. The cells were then washed twice with HBSS-HEPES buffer (Hanks' balanced salt solution without bicarbonate and phenol red, 20 mM HEPES, pH 7.4) using an ELx405 Select CW Microplate Washer (BioTek, Winooski, Vt., USA). After 60 min of dye-loading in the dark using the Ca^2+-sensitive dye Fluo-4AM (Invitrogen, Carlsbad, Calif., USA), at a final concentration of 2×10^−6M, the plates were washed 4 times with HBSS-HEPES buffer to remove excess dye and leaving 50 μl of buffer in each well. The plates were then placed in the FLIPR TETRA instrument and allowed to equilibrate at 37° C. AGN-211377 was added in a 25 μl volume to each well to give final concentrations of 0.1 μl. M, 0.4M, 1 μM, 3 μl. M, 10 μl. M, and 30 μl. M; or 0.067 μM, 0.4M, 0.67 μM, and 1 μM for cells over-expressing TP receptors. After 4.5 minutes, a 7-point serial dilution of the standard agonist for the corresponding receptor, in a 25 μl volume was injected at the final concentrations from 10^−11M to 10^−5M in 10-fold serial dilution increments for cells expressing human recombinant DP1, EP1, EP2, EP3, EP4, FP, and IP receptors. The dose range for the standard agonist for human recombinant TP receptors was from 10^−12M to 10^−6M. HBSS-HEPES buffer was used as the negative control for the standard agonists. Cells were excited with LED (light emitting diode) excitation at 470-495 nm and emission was measured through an emission filter at 515-575 nm. Assay plates were read for 3.5 minutes using the FLIPR^TETRA. The peak increase in fluorescence intensity was recorded for each well. On each plate, negative controls, dose response of positive controls, and co-treatments of antagonist-agonist for each dose were in triplicates. Standard agonists were as follows: DP=BW 245C, EP1-EP4=PGE2, FP=17-phenyl-PGF2a, IP=Cicaprost, and TP=U-46619. […]

[2] = molecular target: T2, human prostanoid EP1 receptor (Homo sapiens, UniProt P34995); assay: FLIPR Ca2+ signaling antagonist assay, EP1 receptor stable cell line; type: cell-based; conditions: human recombinant EP1 in HEK-293 EBNA cells; standard agonist PGE2; NA = no antagonism or Kb>=10,000 nM
T2 construct: expressed in transfected cells
T2 sequence (P34995 1-402): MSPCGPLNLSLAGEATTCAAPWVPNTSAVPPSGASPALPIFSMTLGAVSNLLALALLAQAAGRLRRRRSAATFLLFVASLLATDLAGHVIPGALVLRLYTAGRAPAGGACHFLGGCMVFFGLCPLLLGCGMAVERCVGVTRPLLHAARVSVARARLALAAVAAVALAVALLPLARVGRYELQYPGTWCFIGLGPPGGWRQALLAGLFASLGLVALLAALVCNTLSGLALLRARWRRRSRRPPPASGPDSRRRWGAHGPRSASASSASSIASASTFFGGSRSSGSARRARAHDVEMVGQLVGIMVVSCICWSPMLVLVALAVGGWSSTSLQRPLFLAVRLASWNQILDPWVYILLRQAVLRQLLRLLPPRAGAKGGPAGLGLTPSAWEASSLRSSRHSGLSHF
Protocol: as §1, §2, §3, §4

**Q.** `CC(C)Cn1ncc2cc(Cl)cc(Cn3ncc4cc(C(=O)O)ccc43)c21` [Compound 41, 1-(5-Chloro-1-isobutyl-1H-indazol-7-ylmethyl)-1H-indazole-5-carboxylic acid] was tested. Which Kb [1] did it give?
**A.** 0.04 µM

**Q.** And the Kb [2]?
**A.** 0.73 µM

**Q.** Which Kb [1] does the source give for `CC(C)Cn1ncc2cc(Br)cc(Cn3ncc4cc(C(=O)O)ccc43)c21` [Compound 42, 1-(5-Bromo-1-isobutyl-1H-indazol-7-ylmethyl)-1H-indazole-5-carboxylic acid] here?
**A.** 0.16 µM

**Q.** What about the Kb [2] of the same compound?
**A.** 2.3 µM

**Q.** What does the source list for `CC(C)Cn1ncc2cc(F)cc(Cn3ncc4cc(C(=O)O)ccc43)c21` [Compound 43, 1-(5-Fluoro-1-isobutyl-1H-indazol-7-ylmethyl)-1H-indazole-5-carboxylic acid]?
**A.** Kb [1]: 0.45 µM; Kb [2]: > 10 µM

**Q.** Which results are given for `CC(C)Cn1ncc2cc(C(F)(F)F)cc(Cn3ncc4cc(C(=O)O)ccc43)c21` [Compound 44, 1-(1-Isobutyl-5-trifluoromethyl-1H-indazol-7-ylmethyl)-1H-indazole-5-carboxylic acid]?
**A.** FLIPR data TP (Kb) [1]: Ag; Kb [2]: 1.5 µM

**Q.** `CC(C)Cn1ncc2cc(OC(F)(F)F)cc(Cn3ncc4cc(C(=O)O)ccc43)c21` [Compound 45, 1-(1-Isobutyl-5-trifluoromethoxy-1H-indazol-7-ylmethyl)-1H-indazole-5-carboxylic acid] was tested. Which “FLIPR data TP (Kb)” value [1] did it give?
**A.** Ag

**Q.** What about the Kb [2] of the same compound?
**A.** 0.8 µM

**Q.** What does the source list for `CC(C)n1ncc2cc(Br)cc(Cn3ncc4cc(C(=O)O)ccc43)c21` [Compound 46, 1-(5-Bromo-1-isopropyl-1H-indazol-7-ylmethyl)-1H-indazole-5-carboxylic acid]?
**A.** Kb [1]: 1.4 µM; Kb [2]: 3 µM

**Q.** How did the Kb [1] turn out when `CCC(CC)Cn1ncc2cc(Br)cc(Cn3ncc4cc(C(=O)O)ccc43)c21` [Compound 47, 1-[5-Bromo-1-(2-ethyl-butyl)-1H-indazol-7-ylmethyl]-1H-indazole-5-carboxylic acid] was run?
**A.** 0.7 µM

**Q.** And the Kb [2]?
**A.** 0.5 µM

**Q.** With `CCCn1ncc2cc(Cl)cc(Cn3ncc4cc(C(=O)O)ccc43)c21` [Compound 48] as the compound, how does the Kb [1] read?
**A.** 0.74 µM

**Q.** And the Kb [2]?
**A.** > 10 µM

**Q.** How did the Kb [1] turn out when `CC(C)Cn1ncc2cc(Cl)cc(Cn3ncc4cc(C(=O)O)cnc43)c21` [Compound 49, 1-(5-Chloro-1-isobutyl-1H-indazol-7-ylmethyl)-1H-pyrazolo[3,4-b]pyridine-5-carboxylic acid] was run?
**A.** 0.17 µM

**Q.** What about the Kb [2] of the same compound?
**A.** 9.8 µM

**Q.** How did the Kb [1] turn out when `CC(C)Cn1ncc2cc(Cl)cc(Cn3cnc4cc(C(=O)O)ccc43)c21` [Compound 50, 1-(5-Chloro-1-isobutyl-1H-indazol-7-ylmethyl)-1H-benzoimidazole-5-carboxylic acid] was run?
**A.** 5 µM

**Q.** And the Kb [2]?
**A.** > 10 µM

**Q.** For `CC(C)Cn1ncc2cc(Cl)cc(Cn3cnc4cc(C(=O)O)cnc43)c21` [Compound 51, 3-(5-Chloro-1-isobutyl-1H-indazol-7-ylmethyl)-3H-imidazo[4,5-b]pyridine-6-carboxylic acid], which Kb [1] is on record?
**A.** 0.28 µM

**Q.** And the Kb [2]?
**A.** > 10 µM

**Q.** `CC(C)Cn1ncc2cc(Cl)cc(Cn3ccc4cc(C(=O)O)cnc43)c21` [Compound 52, 1-(5-Chloro-1-isobutyl-1H-indazol-7-ylmethyl)-1H-pyrrolo[2,3-b]pyridine-5-carboxylic acid] was tested. Which Kb [1] did it give?
**A.** 0.02 µM

**Q.** What about the Kb [2] of the same compound?
**A.** 0.6 µM

**Q.** `Cc1nn(Cc2cc(Br)cc3cnn(CC(C)C)c23)c2ccc(C(=O)O)cc12` [Compound 53, 1-(5-Bromo-1-isobutyl-1H-indazol-7-ylmethyl)-3-methyl-1H-indazole-5-carboxylic acid] was tested. Which Kb [1] did it give?
**A.** 1 µM

**Q.** And the Kb [2]?
**A.** 5.7 µM

**Q.** With `Cc1nn(Cc2cc(Br)cc3cnn(CC(C)C)c23)c2ncc(C(=O)O)cc12` [Compound 54, 1-(5-Bromo-1-isobutyl-1H-indazol-7-ylmethyl)-3-methyl-1H-pyrazolo[3,4-b]pyridine-5-carboxylic HCl salt] as the compound, how does the Kb [1] read?
**A.** 1.6 µM

**Q.** And the Kb [2]?
**A.** > 10 µM

**Q.** `CC(C)Cn1ncc2cc(C(F)(F)F)cc(Cn3cnc4cc(C(=O)O)ccc43)c21` [Compound 55, 1-(1-Isobutyl-5-trifluoromethyl-1H-indazol-7-ylmethyl)-1H-benzoimidazole-5-carboxylic acid] was tested. Which “FLIPR data TP (Kb)” value [1] did it give?
**A.** Ag

**Q.** And the Kb [2]?
**A.** 4 µM

**Q.** `CC(C)Cn1ncc2cc(OC(F)(F)F)cc(Cn3cnc4cc(C(=O)O)ccc43)c21` [Compound 56, 1-(1-Isobutyl-5-trifluoromethoxy-1H-indazol-7-ylmethyl)-1H-benzoimidazole-5-carboxylic acid] was tested. Which Kb [1] did it give?
**A.** 0.03 µM

**Q.** What about the Kb [2] of the same compound?
**A.** 9 µM

**Q.** With `CC(C)Cn1ncc2cc(Cl)cc(Cc3ncc4cc(C(=O)O)ccn34)c21` [Compound 61, 3-[(5-Chloro-1-isobutyl-indazol-7-yl)methyl]imidazo[1,5-a]pyridine-7-carboxylic acid] as the compound, how does the Kb [1] read?
**A.** > 10 µM

**Q.** And the Kb [2]?
**A.** > 10 µM

**Q.** How did the Kb [1] turn out when `CC(C)Cn1ncc2cc(Cl)cc(Cn3nc(N)c4cc(C(=O)O)ccc43)c21` [Compound 68, 3-Amino-1-[(5-chloro-1-isobutyl-indazol-7-yl)methyl]indazole-5-carboxylic acid] was run?
**A.** 1.3 µM

**Q.** What about the Kb [2] of the same compound?
**A.** > 10 µM

**Q.** `CNc1nn(Cc2cc(Cl)cc3cnn(CC(C)C)c23)c2ccc(C(=O)O)cc12` [Compound 70, 1-[(5-Chloro-1-isobutyl-indazol-7-yl)methyl]-3-(methylamino)indazole-5-carboxylic acid] was tested. Which Kb [1] did it give?
**A.** 0.3 µM

**Q.** And the Kb [2]?
**A.** 2.3 µM
